Reference: patent publication US20210047291A1, “PESTICIDALLY ACTIVE HETEROCYCLIC DERIVATIVES WITH SULFUR CONTAINING SUBSTITUENTS” (SYNGENTA PARTICIPATIONS AG, priority 2018, published 2021)

Tests used:
Assay type in all cases: in vivo
[1] = tested on: Diabrotica Balteata (Corn Root Worm); experiment: Example B2: Diabrotica balteata, maize sprouts, L2 larvae; conditions: Diabrotica balteata, 96 h, application rate of 200 ppm; L2 larvae; 4 days after infestation; read-out: effect in at least one of the two categories (mortality or growth inhibition)
Experimental: Maize sprouts placed onto an agar layer in 24-well microtiter plates were treated with aqueous test solutions prepared from 10,000 ppm DMSO stock solutions by spraying. After drying, the plates were infested with L2 larvae (6 to 10 per well). The samples were assessed for mortality and growth inhibition in comparison to untreated samples 4 days after infestation.

[2] = tested on: Myzus persicae (Green peach aphid); experiment: Example B5: Myzus persicae feeding/contact activity, sunflower leaf discs; conditions: Myzus persicae, foliar, 144 h; application rate of 200 ppm; mixed ages; 6 days after infestation; read-out: mortality
Experimental: Sunflower leaf discs were placed onto agar in a 24-well microtiter plate and sprayed with aqueous test solutions prepared from 10,000 ppm DMSO stock solutions. After drying, the leaf discs were infested with an aphid population of mixed ages. The samples were assessed for mortality 6 days after infestation.

[3] = tested on: Plutella xylostella (Diamond Back Moth); experiment: Example B12: Plutella xylostella, artificial diet, eggs; conditions: 192 h, application rate of 200 ppm, 8 days after infestation, read-out: effect in at least one of the two categories (mortality or growth inhibition)
Experimental: 24-well microtiter plates with artificial diet were treated with aqueous test solutions prepared from 10,000 ppm DMSO stock solutions by pipetting. After drying, Plutella eggs were pipetted through a plastic stencil onto a gel blotting paper and the plate was closed with it. The samples were assessed for mortality and growth inhibition in comparison to untreated samples 8 days after infestation. The following compounds gave an effect of at least 80% in at least one of the two categories (mortality or growth inhibition) at an application rate of 200 ppm: P46.

[4] = tested on: Tetranychus urticae (Two-Spotted Spider Mite); experiment: Example B10: Tetranychus urticae feeding/contact activity, bean leaf discs; conditions: foliar, 192 h, application rate of 200 ppm, mixed population (mobile stages), 8 days after infestation
Experimental: Bean leaf discs on agar in 24-well microtiter plates were sprayed with aqueous test solutions prepared from 10,000 ppm DMSO stock solutions. After drying the leaf discs were infested with a mite population of mixed ages. The samples were assessed for mortality on mixed population (mobile stages) 8 days after infestation.

[5] = tested on: Bemisia tabaci (Cotton White Fly); experiment: Example B1: Bemisia tabaci feeding/contact activity, cotton leaf discs; conditions: foliar, 144 h, application rate of 200 ppm, adult white flies, 6 days after incubation
Experimental: Cotton leaf discs were placed on agar in 24-well microtiter plates and sprayed with aqueous test solutions prepared from 10,000 ppm DMSO stock solutions. After drying the leaf discs were infested with adult white flies. The samples were checked for mortality 6 days after incubation.

[6] = tested on: Euschistus heros (Neotropical Brown Stink Bug); experiment: Example B3: Euschistus heros, soybean leaves, N2 nymphs; conditions: Euschistus heros, 120 h; application rate of 200 ppm; N2 nymphs; 5 days after infestation; read-out: effect in at least one of the two categories (mortality or growth inhibition)
Experimental: Soybean leaves on agar in 24-well microtiter plates were sprayed with aqueous test solutions prepared from 10,000 ppm DMSO stock solutions. After drying the leaves were infested with N2 nymphs. The samples were assessed for mortality and growth inhibition in comparison to untreated samples 5 days after infestation.

[7] = tested on: Frankliniella occidentalis (Western Flower Thrips); experiment: Example B4: Frankliniella occidentalis feeding/contact activity, sunflower leaf discs; conditions: foliar, 168 h, application rate of 200 ppm, mixed ages, 7 days after infestation
Experimental: Sunflower leaf discs were placed on agar in 24-well microtiter plates and sprayed with aqueous test solutions prepared from 10,000 DMSO stock solutions. After drying the leaf discs were infested with a Frankliniella population of mixed ages. The samples were assessed for mortality 7 days after infestation.

[8] = tested on: Myzus persicae (Green peach aphid); experiment: Example B6: Myzus persicae systemic activity, pea seedlings; conditions: Myzus persicae, 144 h; test rate of 24 ppm; mixed ages; 6 days after placing seedlings into test solutions; read-out: mortality
Experimental: Roots of pea seedlings infested with an aphid population of mixed ages were placed directly into aqueous test solutions prepared from 10,000 DMSO stock solutions. The samples were assessed for mortality 6 days after placing seedlings into test solutions.

CCS(=O)(=O)c1cc(N(C(C)=O)C(C)C)cnc1-c1nc2cc(C(F)(F)F)ncc2n1C [P46, N-[5-ethylsulfonyl-6-[3-methyl-6-(trifluoromethyl)imidazo[4,5-c]pyridin-2-yl]-3-pyridyl]-N-isopropyl-acetamide]
≥ 80%: percent effect (mortality or growth inhibition) at 200 ppm [1] | mortality at 200 ppm [2] | percent effect (mortality or growth inhibition) at 200 ppm [3] | mortality at 200 ppm [4] | mortality at 200 ppm [5] | percent effect (mortality or growth inhibition) at 200 ppm [6] | mortality at 200 ppm [7] | mortality at 24 ppm [8]
